Values quoted from earlier work in US6419954B1, “Tablets and methods for modified release of hydrophilic and other active agents” (Yamanouchi Pharmaceutical Co., Ltd., priority 2000, dated 2002).
Structures can show the parent of a compound that is named as a salt. Where two headings read alike, the source gives them in different places.

Conditions: at 25° C.

water solubility (hemihydrate): about 766 mg/ml | water solubility (listed as SNI-2011, hemihydrate): about 1,400 mg/ml
SMILES: CC1OC2(CS1)CN1CCC2CC1 (racemic) [Cevimeline HCl, (+/−)-cis-2-methylspiro [1,3-oxathiolane-5,3′-quinuclidine]hydrochloride, hemihydrate]
